Results published in paper doi:10.1101/2021.07.15.452591v1 (biorxiv, 2021).

Target: T1, AmnC (2-aminomuconic 6-semialdehyde dehydrogenase) (Pseudomonas sp., UniProt Q9KWS5, DEL124-138/DEL477-491)
T1 sequence (Q9KWS5 1-476 DEL124-138): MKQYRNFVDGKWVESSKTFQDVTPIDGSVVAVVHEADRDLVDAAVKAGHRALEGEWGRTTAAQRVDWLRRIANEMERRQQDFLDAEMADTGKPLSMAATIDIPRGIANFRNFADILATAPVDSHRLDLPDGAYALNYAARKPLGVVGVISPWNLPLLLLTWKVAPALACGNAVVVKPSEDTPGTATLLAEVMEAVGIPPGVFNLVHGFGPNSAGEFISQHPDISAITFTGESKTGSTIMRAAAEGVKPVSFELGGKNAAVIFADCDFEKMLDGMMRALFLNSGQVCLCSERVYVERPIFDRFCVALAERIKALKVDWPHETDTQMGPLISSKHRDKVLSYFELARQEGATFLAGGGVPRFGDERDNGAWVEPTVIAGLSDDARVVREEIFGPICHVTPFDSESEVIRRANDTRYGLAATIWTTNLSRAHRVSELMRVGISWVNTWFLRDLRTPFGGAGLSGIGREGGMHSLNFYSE
Test: microscale thermophoresis
Assay type: binding

Q: Which Kd does the source give for `NC(=O)c1ccc[n+]([C@@H]2O[C@H](COP(=O)(O)OP(=O)(O)OC[C@H]3O[C@@H](n4cnc5c(N)ncnc54)[C@H](O)[C@@H]3O)[C@@H](O)[C@H]2O)c1` [NAD^+] here?
A: 3 ± 0.3 mM
